Reference: patent publication US20230151003A1, “COMPOUNDS AND METHODS OF USE” (Exelixis, Inc., priority 2020, published 2023)

Assays:
[1] = biological target: T1, Mer (Homo sapiens, UniProt Q12866); test: Mer autophosphorylation ELISA in transient transfected 293A cells; type: cell-based; conditions: Table 3 Cellular Activities; MERTK-transfected 293A cells, phospho-Mer ELISA
T1 construct: host or cells: 293A cells (Thermo Fisher #R70507)
T1 sequence (Q12866 21-999): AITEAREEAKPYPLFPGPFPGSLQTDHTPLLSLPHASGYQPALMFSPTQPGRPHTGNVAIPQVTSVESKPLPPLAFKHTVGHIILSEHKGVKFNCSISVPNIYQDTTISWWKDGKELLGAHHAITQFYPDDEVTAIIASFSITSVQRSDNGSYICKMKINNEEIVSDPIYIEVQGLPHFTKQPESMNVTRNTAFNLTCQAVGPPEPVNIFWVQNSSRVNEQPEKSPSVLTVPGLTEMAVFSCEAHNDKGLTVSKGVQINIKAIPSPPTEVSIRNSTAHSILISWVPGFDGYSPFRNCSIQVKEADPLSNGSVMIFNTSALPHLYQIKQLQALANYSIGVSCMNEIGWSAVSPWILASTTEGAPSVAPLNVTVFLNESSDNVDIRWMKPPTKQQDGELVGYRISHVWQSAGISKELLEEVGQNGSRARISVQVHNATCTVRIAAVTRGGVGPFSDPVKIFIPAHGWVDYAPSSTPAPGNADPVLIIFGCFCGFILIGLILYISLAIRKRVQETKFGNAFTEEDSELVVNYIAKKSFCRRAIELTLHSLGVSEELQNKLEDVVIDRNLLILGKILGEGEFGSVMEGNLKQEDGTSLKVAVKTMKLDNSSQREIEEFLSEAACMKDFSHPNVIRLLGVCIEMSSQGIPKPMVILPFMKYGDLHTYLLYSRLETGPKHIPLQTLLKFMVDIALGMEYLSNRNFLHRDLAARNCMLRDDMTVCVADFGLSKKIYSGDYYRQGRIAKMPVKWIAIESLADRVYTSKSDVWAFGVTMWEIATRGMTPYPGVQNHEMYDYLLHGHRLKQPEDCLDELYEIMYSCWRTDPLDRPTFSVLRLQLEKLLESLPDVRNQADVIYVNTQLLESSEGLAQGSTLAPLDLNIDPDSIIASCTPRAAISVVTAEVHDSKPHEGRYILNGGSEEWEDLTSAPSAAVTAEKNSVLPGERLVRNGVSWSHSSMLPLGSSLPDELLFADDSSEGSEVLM
In short: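 293A cells transiently transfected with human MERTK DNA, replated after 24 h, then treated 1 h with 8-point compound dilutions in serum-free medium (0.3% DMSO). Lysates assayed by phospho-Mer sandwich ELISA against phospho-Mer standard; DMSO = 100%, reference inhibitor = 0% activity; IC50 by 4-parameter logistic fit.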

[2] = biological target: KDR (Homo sapiens, UniProt P35968); test: KDR autophosphorylation ELISA in HUVEC cells; type: cell-based; parameters: endogenous in cells; host or cells: HUVEC (Lonza #C2519A); conditions: Table 3 Cellular Activities, VEGF165-stimulated, phospho-KDR ELISA
In short: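 Phospho-KDR levels in lysates were measured by ELISA and referenced to stimulated-vehicle (100%) and unstimulated (0%) wells, IC50 from 4-parameter logistic fit. HUVEC, starved 24 h in serum-free medium, received an 8-point compound series (0.3% DMSO) for 1 h before a 5 min 100 ng/mL VEGF165 challenge.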

Sequence of KDR (P35968 20-1356): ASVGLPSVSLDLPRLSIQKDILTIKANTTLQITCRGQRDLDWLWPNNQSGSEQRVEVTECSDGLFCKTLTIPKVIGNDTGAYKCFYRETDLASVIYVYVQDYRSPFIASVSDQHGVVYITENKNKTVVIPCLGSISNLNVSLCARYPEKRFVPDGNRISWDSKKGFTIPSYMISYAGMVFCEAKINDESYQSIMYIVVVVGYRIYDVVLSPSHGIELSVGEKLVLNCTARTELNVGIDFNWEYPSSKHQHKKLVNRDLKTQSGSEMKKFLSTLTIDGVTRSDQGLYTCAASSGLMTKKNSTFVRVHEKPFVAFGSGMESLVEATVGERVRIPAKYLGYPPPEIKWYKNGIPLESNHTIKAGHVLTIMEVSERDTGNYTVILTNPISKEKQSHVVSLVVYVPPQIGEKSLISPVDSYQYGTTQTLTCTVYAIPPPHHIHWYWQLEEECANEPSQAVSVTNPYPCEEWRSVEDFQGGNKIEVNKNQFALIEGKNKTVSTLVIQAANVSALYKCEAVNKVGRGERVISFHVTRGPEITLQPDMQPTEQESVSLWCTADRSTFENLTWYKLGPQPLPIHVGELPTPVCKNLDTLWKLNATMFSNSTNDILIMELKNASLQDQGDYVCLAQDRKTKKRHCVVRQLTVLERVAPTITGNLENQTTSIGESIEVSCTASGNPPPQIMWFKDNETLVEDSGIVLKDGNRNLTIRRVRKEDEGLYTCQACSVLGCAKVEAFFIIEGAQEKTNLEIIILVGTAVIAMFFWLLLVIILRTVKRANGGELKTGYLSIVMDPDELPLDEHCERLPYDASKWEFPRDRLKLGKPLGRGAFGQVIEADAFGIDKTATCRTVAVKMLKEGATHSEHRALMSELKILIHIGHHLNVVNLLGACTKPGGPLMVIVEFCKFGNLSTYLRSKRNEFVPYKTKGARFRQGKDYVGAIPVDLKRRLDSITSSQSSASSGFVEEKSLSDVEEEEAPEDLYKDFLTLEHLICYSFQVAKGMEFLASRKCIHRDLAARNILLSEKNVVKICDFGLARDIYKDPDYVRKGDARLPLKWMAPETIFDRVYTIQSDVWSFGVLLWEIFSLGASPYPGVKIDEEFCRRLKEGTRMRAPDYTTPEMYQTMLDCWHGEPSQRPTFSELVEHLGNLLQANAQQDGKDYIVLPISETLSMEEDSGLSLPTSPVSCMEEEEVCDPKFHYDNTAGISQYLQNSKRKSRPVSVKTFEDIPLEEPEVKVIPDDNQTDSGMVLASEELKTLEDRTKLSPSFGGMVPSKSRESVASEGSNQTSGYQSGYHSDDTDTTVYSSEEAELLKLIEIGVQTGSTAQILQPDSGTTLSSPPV

Row | SMILES | IC50 [1] [nM] | IC50 [2] [nM]
1 | CCOc1ccn(-c2ccc(F)cn2)c(=O)c1C(=O)Nc1ccc(Oc2ccnc3cc(OC)c(OC)nc23)cc1 [Compound 244, N-[4-[(6,7-Dimethoxy-1,5-naphthyridin-4-yl)oxy]phenyl]-4-ethoxy-1-(5-fluoropyridin-2-yl)-2-oxopyridine-3-carboxamide] | ≤ 100 | 300 to 1000
2 | COc1cc2nccc(Oc3ccc(NC(=O)c4ccc(C)n(-c5ccncc5)c4=O)cc3F)c2nc1OC [Compound 221, N-[4-[(6,7-Dimethoxy-1,5-naphthyridin-4-yl)oxy]-3-fluorophenyl]-6-methyl-2-oxo-1-pyridin-4-ylpyridine-3-carboxamid] | ≤ 100 | ≤ 100
3 | COc1cc2nccc(Oc3ccc(NC(=O)c4cc(C(C)=O)c(C)n(-c5ccoc5)c4=O)cc3F)c2nc1OC [Compound 235, 5-Acetyl-N-[4-[(6,7-dimethoxy-1,5-naphthyridin-4-yl)oxy]-3-fluorophenyl]-1-(furan-3-yl)-6-methyl-2-oxopyridine-3-carboxamide] | ≤ 100 | 300 to 1000
4 | COc1cc2nccc(Oc3ccc(NC(=O)c4c(C)ncc(-c5ncc(F)cc5C)c4O)cc3F)c2nc1OC [Compound 200, N-[4-[(6,7-Dimethoxy-1,5-naphthyridin-4-yl)oxy]-3-fluorophenyl]-5-(5-fluoro-3-methylpyridin-2-yl)-4-hydroxy-2-methylpyridine-3-carboxamide] | ≤ 100 | ≤ 100
5 | COc1cc2nccc(Oc3ccc(NC(=O)c4ccc(C)n(-c5ncc(F)cc5C)c4=O)cc3F)c2nc1OC [Compound 51, N-[4-[(6,7-Dimethoxy-1,5-naphthyridin-4-yl)oxy]-3-fluorophenyl]-1-(5-fluoro-3-methylpyridin-2-yl)-6-methyl-2-oxopyridine-3-carboxamide] | ≤ 100 | ≤ 100
6 | COc1cc2nccc(Oc3ccc(NC(=O)c4c(C)n(C)cc(-c5ccc(F)cn5)c4=O)cc3)c2nc1OC [Compound 72, N-[4-[(6,7-Dimethoxy-1,5-naphthyridin-4-yl)oxy]phenyl]-5-(5-fluoropyridin-2-yl)-1,2-dimethyl-4-oxopyridine-3-carboxamide] | ≤ 100 | 300 to 1000
7 | COc1cc(-n2c(C)ccc(C(=O)Nc3ccc(Oc4ccnc5cc(OC)c(OC)nc45)c(F)c3)c2=O)ccn1 [Compound 226, N-[4-[(6,7-Dimethoxy-1,5-naphthyridin-4-yl)oxy]-3-fluorophenyl]-1-(2-methoxypyridin-4-yl)-6-methyl-2-oxopyridine-3-carboxamide] | ≤ 100 | ≤ 100
8 | COc1cc2nccc(Oc3ccc(NC(=O)c4c(C)n(C)cc(-c5ccc(F)cn5)c4=O)cc3F)c2nc1OC [Compound 71, N-[4-[(6,7-Dimethoxy-1,5-naphthyridin-4-yl)oxy]-3-fluorophenyl]-5-(5-fluoropyridin-2-yl)-1,2-dimethyl-4-oxopyridine-3-carboxamide] | ≤ 100 | 300 to 1000
9 | COc1cnc2c(Oc3ccc(NC(=O)c4c(C)n(C)cc(-c5ccc(F)cn5)c4=O)cc3F)ccnc2c1 [Compound 73, N-[3-Fluoro-4-[(7-methoxy-1,5-naphthyridin-4-yl)oxy]phenyl]-5-(5-fluoropyridin-2-yl)-1,2-dimethyl-4-oxopyridine-3-carboxamide] | ≤ 100 | 300 to 1000
10 | COc1ccc2nccc(Oc3ccc(NC(=O)c4ccc(C)n(-c5ccc(F)cn5)c4=O)cc3F)c2n1 [Compound 47, N-[3-Fluoro-4-[(6-methoxy-1,5-naphthyridin-4-yl)oxy]phenyl]-1-(5-fluoropyridin-2-yl)-6-methyl-2-oxopyridine-3-carboxamide] | ≤ 100 | ≤ 100
11 | COc1cc2nccc(Oc3ccc(NC(=O)c4cc(C#N)c(C)n(-c5ccc(F)cn5)c4=O)cc3F)c2nc1OC [Compound 56, 5-Cyano-N-[4-[(6,7-dimethoxy-1,5-naphthyridin-4-yl)oxy]-3-fluorophenyl]-1-(5-fluoropyridin-2-yl)-6-methyl-2-oxopyridine-3-carboxamide] | ≤ 100 | 300 to 1000
12 | COc1cc2nccc(Oc3ccc(NC(=O)c4ccc(C)n(-c5ccnc(C)c5)c4=O)cc3F)c2nc1OC [Compound 230, N-[4-[(6,7-Dimethoxy-1,5-naphthyridin-4-yl)oxy]-3-fluorophenyl]-6-methyl-1-(2-methylpyridin-4-yl)-2-oxopyridine-3-carboxamide] | ≤ 100 | ≤ 100
13 | Cc1ccc(C(=O)Nc2ccc(Oc3ccnc4cccnc34)c(F)c2)c(=O)n1-c1ccc(F)cn1 [Compound 48, N-[3-Fluoro-4-(1,5-naphthyridin-4-yloxy)phenyl]-1-(5-fluoropyridin-2-yl)-6-methyl-2-oxopyridine-3-carboxamide] | ≤ 100 | 300 to 1000
14 | COc1cnc2c(Oc3ccc(NC(=O)c4ccc(C)n(-c5ncc(F)cc5C)c4=O)cc3F)ccnc2c1 [Compound 52, N-[3-Fluoro-4-[(7-methoxy-1,5-naphthyridin-4-yl)oxy]phenyl]-1-(5-fluoro-3-methylpyridin-2-yl)-6-methyl-2-oxopyridine-3-carboxamide] | ≤ 100 | ≤ 100
15 | COc1cc2nccc(Oc3ccc(NC(=O)c4c(C)nc(C)c(-c5ccc(F)cn5)c4O)cc3)c2nc1OC [Compound 216, N-[4-[(6,7-Dimethoxy-1,5-naphthyridin-4-yl)oxy]phenyl]-5-(5-fluoropyridin-2-yl)-4-hydroxy-2,6-dimethylpyridine-3-carboxamide] | ≤ 100 | ≤ 100

Now from value to compound:

Row | IC50 [1] [nM] | IC50 [2] [nM] | SMILES
16 | ≤ 100 | 100 to 300 | COc1cc2nccc(Oc3ccc(NC(=O)c4cn(CCF)c(C)c(-c5cccs5)c4=O)cc3F)c2nc1OC [Compound 327, N-[4-[(6,7-Dimethoxy-1,5-naphthyridin-4-yl)oxy]-3-fluorophenyl]-1-(2-fluoroethyl)-6-methyl-4-oxo-5-thiophen-2-ylpyridine-3-carboxamide]
17 | ≤ 100 | ≤ 100 | COc1cc2nccc(Oc3ccc(NC(=O)c4c5n(cc(-c6cc(C)cs6)c4=O)CCOC5)cc3F)c2nc1OC [Compound 302, N-[4-[(6,7-Dimethoxy-1,5-naphthyridin-4-yl)oxy]-3-fluorophenyl]-7-(4-methylthiophen-2-yl)-8-oxo-3,4-dihydro-1H-pyrido[2,1-c][1,4]oxazine-9-carboxamide]
18 | ≤ 100 | ≤ 100 | CCc1c(C(=O)Nc2ccc(Oc3ccnc4cc(OC)c(OC)nc34)c(F)c2)c(=O)c(-c2ccco2)c(C)n1C [Compound 324, N-[4-[(6,7-Dimethoxy-1,5-naphthyridin-4-yl)oxy]-3-fluorophenyl]-2-ethyl-5-(furan-2-yl)-1,6-dimethyl-4-oxopyridine-3-carboxamide]
19 | ≤ 100 | ≤ 100 | COc1cc2nccc(Oc3ccc(NC(=O)c4c(C)cc(C)n(-c5ccc(F)cn5)c4=O)cc3)c2nc1OC [Compound 245, N-[4-[(6,7-Dimethoxy-1,5-naphthyridin-4-yl)oxy]phenyl]-1-(5-fluoropyridin-2-yl)-4,6-dimethyl-2-oxopyridine-3-carboxamide]
20 | ≤ 100 | ≤ 100 | COCCOc1cc2nccc(Oc3ccc(NC(=O)c4c(C)n(C)c(C)c(-c5ccco5)c4=O)cc3F)c2nc1OC [Compound 254, N-[3-Fluoro-4-[[6-methoxy-7-(2-methoxyethoxy)-1,5-naphthyridin-4-yl]oxy]phenyl]-5-(furan-2-yl)-1,2,6-trimethyl-4-oxopyridine-3-carboxamide]
21 | ≤ 100 | 300 to 1000 | COc1cc2nccc(Oc3ccc(NC(=O)c4c5n(cc(-c6cccs6)c4=O)CCOC5)cc3)c2nc1OC [Compound 299, N-[4-[(6,7-Dimethoxy-1,5-naphthyridin-4-yl)oxy]phenyl]-8-oxo-7-thiophen-2-yl-3,4-dihydro-1H-pyrido[2,1-c][1,4]oxazine-9-carboxamide]
22 | ≤ 100 | ≤ 100 | COc1cc2nccc(Oc3ccc(NC(=O)c4cnc(C)c(-c5ccco5)c4O)cc3)c2nc1OC [Compound 255, N-[4-[(6,7-Dimethoxy-1,5-naphthyridin-4-yl)oxy]phenyl]-5-(furan-2-yl)-4-hydroxy-6-methylpyridine-3-carboxamide]
